In series [1] the target is T1, ABD L253P (Homo sapiens, UniProt O15020, L253P).
T1 construct: the β-III-spectrin (human) ABD residues 1 to 284; His-SUMO (cleaved yes); made in house; host or cells: E. coli BL21(DE3), vector pE-SUMOpro
Put plainly: Sedimentation of ABD L253P without actin (aggregation). The settings on record: for Effect on ABD pelleting without actin (aggregation): 10 μM Hit compound, n = 4. The method, then:
In addition to a reduction in cell viability, the primary and counter screen may be sensitive to compounds that promote ABD-L253P protein aggregation. […] Our assay measuring ABD-L253P cosedimentation with actin is not sensitive to ABD aggregation, as it is designed to work under conditions where ∼90% ABD-L253P cosediments with actin. Nevertheless, we repeated these measurements in the absence of actin.
F-actin and ABD binding assays were performed as previously described ([10]). In brief, binding assays used 1 μM ABD protein, 1 μM F-actin, and 1 to 50 μM compound (as indicated) or DMSO control for a total reaction volume of 60 μl in F-buffer containing 10 mM Tris, pH 7.5, 150 mM NaCl, 0.5 mM ATP, 2 mM MgCl2, and 1 mM DTT. Following 30 min incubation at room temperature (21 °C). F-actin was pelleted using centrifugation at 100,000g at 25 °C for 30 min. Unbound ABD in the supernatant was measured following SDS-PAGE and Coomassie blue staining in accord ([10]). In addition, control cosedimentations assays that lacked actin were performed to test if compounds cause ABD aggregation. F-actin and Lifeact-mCherry binding assays were undertaken with 2 μM Lifeact-mCherry, 30 μM F-actin, and 1 to 50 μM compound (as indicated) or DMSO control for a total reaction volume of 80 μl in F-buffer. For a no-actin binding control, an assay sample with no F-actin was also set up. Binding reactions were allowed to reach equilibrium at room temperature (21 °C) for 30 min, and then F-actin was pelleted by centrifugation at 100,000g at 25 °C for 30 min. The amount of unbound Lifeact-mCherry was sampled by loading 7 μl of spin supernatant on a low-volume black bottom 384-well plate (Greiner). Amount of mCherry was determined by acquiring fluorescence spectrum peak intensity at ∼600 nm using a spectral unmixing plate reader (Fluorescence Innovations, Inc) equipped with a 532 nm laser (Laserglow Technologies, Ontario, Canada) for excitation, 532 nm long-pass filter for emission, and PMT for emission detection. The fraction of Lifeact-mCherry bound to F-actin was determined by subtracting from one the fraction of supernatant fluorescence intensity relative to the no-actin control sample:(3) Lifeactboundfraction=1−Fcompound/DMSO/FNo−actin where Fcontrol/DMSO is the peak mCherry fluorescence of assay samples containing compound or DMSO control, and Fno-actin is the peak mCherry fluorescence of assay samples that contained no F-actin.

The subject of series [2] is HEK293-6E cells. Put plainly: Trypan blue cell viability assay. The format is cell-based. As to the method:
HEK293-6E cell viability was measured using trypan blue (0.03%) staining and a Countess Automated Cell counter (Invitrogen). Nontransfected HEK293-6E cells were spun at 100g for 5 min at 21 °C and resuspended in 10 ml of PBS. The centrifugation and resuspension were repeated twice more. Final cell concentration was 1 × 10^6 cells/ml. Cells were incubated with 2% DMSO or 3 to 50 μM compound (as indicated) for 3 h at room temperature (21 °C). After addition of 100 μl of 0.06% trypan blue solution in PBS, 10 μl was loaded on a slide and injected into the cell counter, and cell viability was measured.

Setting [3] is: 10 μM Hit compound, 3 h incubation.

Entries after “also recorded” stand apart in the source; their conditions may differ.

T1 sequence (O15020 1-284 L253P): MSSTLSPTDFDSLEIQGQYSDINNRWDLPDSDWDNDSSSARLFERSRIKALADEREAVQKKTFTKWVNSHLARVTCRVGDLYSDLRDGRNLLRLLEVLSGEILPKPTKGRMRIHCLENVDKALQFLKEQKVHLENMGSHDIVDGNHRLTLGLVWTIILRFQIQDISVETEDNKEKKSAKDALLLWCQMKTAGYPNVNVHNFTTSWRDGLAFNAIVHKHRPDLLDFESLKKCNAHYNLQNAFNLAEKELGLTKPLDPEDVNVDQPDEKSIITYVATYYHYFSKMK

Take `CC(C)(C)c1ccc(/C=C/C(=O)Nc2ccc3c(c2)OCCO3)cc1` [AMG 9810]: in series [1], the “Effect on ABD pelleting without actin (aggregation)” value is “do not significantly alter”. The “Effect on HEK293-6E cell viability” value in series [2] (setting [3]) is on record as “do not significantly alter”.
In the case of `O=C(O)c1cc([N+](=O)[O-])ccc1NCCCc1ccccc1` [NPPB], in series [1], the “Effect on ABD pelleting without actin (aggregation)” value is “do not significantly alter”. Besides, the “Effect on HEK293-6E cell viability” value in series [2] (setting [3]) is recorded as “do not significantly alter”.
For `CCOc1nc2cccc(C(=O)O)c2n1Cc1ccc(-c2ccccc2-c2nnn[nH]2)cc1` [candesartan], the “Effect on ABD pelleting without actin (aggregation)” value in series [1] is on record as “trend toward increasing; also recorded: do not significantly alter”. In addition, the “Effect on HEK293-6E cell viability” value in series [2] (setting [3]) is recorded as “do not significantly alter”.
Take `CCCCCCCC/C=C\CCCCCCCC(=O)NCc1ccc(O)c(OC)c1` [olvanil]: in series [1], the “Effect on ABD pelleting without actin (aggregation)” value was “do not significantly alter”. In addition, the “Effect on HEK293-6E cell viability” value in series [2] (setting [3]) is recorded as “do not significantly alter”.
Turning to `CO[C@H]1C[C@H](CC[C@H](C)[C@H](O)[C@H](C)[C@H]2OC(=O)/C=C/C(C)=C/C[C@H](O)C[C@@H]3C=CC[C@@H](C[C@H](OC)[C@@H](C)[C@@H](O)C[C@@H](O)[C@H](C)[C@@H]([C@@H](C)[C@@H](O)[C@@H](C)CC[C@H]4C[C@H](OC)C[C@H](C)O4)OC(=O)/C=C/C(C)=C/C[C@H](O)C[C@@H]4C=CC[C@@H](C[C@H](OC)[C@@H](C)[C@@H](O)C[C@@H](O)[C@@H]2C)O4)O3)O[C@@H](C)C1` [swinholide A], the “Effect on ABD sedimentation without actin” value in series [1] (1.6 μM swinholide A) is “did not induce”. For the same molecule, the “Effect on HEK293-6E cell viability” value in series [2] (3 μM swinholide A, 50 μM tegaserod, 3 h) is “did not significantly alter”.
